Test results published in ChEMBL document CHEMBL3763090, “A pharmacological perspective on the use of Brazilian Red Propolis and its isolated compounds against human diseases” (Eur J Med Chem, 2016).

Assay: Antioxidant activity assessed as inhibition of linoleic acid oxidation at 90 ug/ml measured over 60 mins by beta-carotene bleaching test
Type: physicochemical
Conditions: 1 h

COc1ccc([C@@H]2COc3cc(O)ccc3C2)c(O)c1
inhibition (INH): 39.5%
